From US20230391785A1, “NITROGEN-CONTAINING HETEROCYCLIC COMPOUND, METHOD FOR PREPARING SAME AND USE OF SAME” (280 Bio, Inc., priority 2021, published 2023)
Read-outs that look alike come from different tables or passages of the source.

Assays:
Assay type in all cases: cell-based
[1] = tested on: AGS gastric cancer cell line (KRAS G12D mutation); test: Proliferation inhibition measured by CTG (CellTiter Glo), AGS; details: CTG, 120 hours incubation
Source text: (§1) NCI-H358 is a human non-small cell lung cancer cell line with KRAS G12C mutation; PANC-1 and AsPC-1 are pancreatic cancer cell lines with KRAS G12D mutation; AGS is a gastric cancer cell line with KRAS G12D mutation; A427 is a lung cancer cell line with KRAS G12D mutation; THP-1 is a leukemia cell line with NRAS G12D mutation; Hs 578T is a breast cancer cell line with HRAS G12D mutation; SW480 is a colon cancer cell lines with KRAS G12V mutation; A375 is a wild type malignant melanoma cell line. The proliferation inhibitory effect of the compounds on various mutations was evaluated by determining the proliferation inhibitory activity of the compounds on these cell lines.
(§2) The assay was conducted on either 384-well plates or 96-well plates. The procedures are as follows:
(§3) The cell suspensions were added to 384- or 96-well plates (384-well plate: 40 μL; 96-well plate: […]) except for peripheral wells. The plates were incubated in a carbon dioxide incubator overnight. Prepared compounds (10 concentration gradients by serial 3-fold dilution) were added to the wells. The cell plates were incubated in a carbon dioxide incubator for 120 hours. CellTiter Glo reagent (384 well plate: 25 μL; 96 well plate: 100 μL) was added to the 384- or 96-well plates. The plates were shaken for 10 minutes away from light, and incubated for 10 minutes. The plates were read by EnVision system. Inhibition curves were plotted using XLFit and IC50 values were calculated. “IC50>10 μM” is denoted by “*”, “10 μM≥IC50>1 μM” is denoted by “**”, “1 μM≥IC50>100 nM” is denoted by “***”, and “IC50≤100 nM” is denoted by “****”.

[2] = tested on: SW480 colon cancer cell line (KRAS G12V mutation); test: Proliferation inhibition measured by CTG (CellTiter Glo), SW480; details: Homo sapiens
Source text: as §1, §2, §3

[3] = tested on: NCI-H358 cells (KRAS G12C mutation); test: Proliferation inhibition measured by CTG (CellTiter Glo), NCI-H358; details: Homo sapiens, 120 hours incubation
Source text: as §1, §2, §3

[4] = tested on: A375 wild type malignant melanoma cell line; test: Proliferation inhibition measured by CTG (CellTiter Glo), A375; details: Homo sapiens, A-375, CTG, 120 hours incubation
Source text: as §1, §2, §3

[5] = Table 3, class symbol, read-out: IC50 (AGS)
[6] = Table 3, 120 hours incubation, class symbol, read-out: IC50 (SW480)
[7] = Table 3, CTG, class symbol, read-out: IC50 (H358)
[8] = Table 3, class symbol, read-out: IC50 (A375)
[9] = Table 2, read-out: IC50 AGS (G12D)
[10] = Table 2, CTG, read-out: IC50 H358 (G12C)
[11] = Table 2, read-out: IC50 A375 (wide type)
[12] = Table 1, class symbol, read-out: IC50 (AGS)
[13] = Table 1, CTG, class symbol, read-out: IC50 (H358)
[14] = Table 1, class symbol, read-out: IC50 (A375)

| IC50 [1, 5] | IC50 [2, 6] | IC50 [3, 7] | IC50 [4, 8] | also measured | Structure (SMILES) |
| --- | --- | --- | --- | --- | --- |
| 1000 to 10000 nM | 1000 to 10000 nM | 1000 to 10000 nM | 1000 to 10000 nM | – | CN1CCC[C@H]1COc1nc2c(c(N3CCn4c(cnc4C4CC4)C3)n1)CCN(c1cccc3cccc(Cl)c13)C2 [Compound 53] |
| 100 to 1000 nM | 100 to 1000 nM | 1000 to 10000 nM | 1000 to 10000 nM | – | C[C@@H]1Cn2cnc(F)c2CN1c1nc(OC[C@@H]2CCCN2C)nc2c1CCN(c1cc(NC(=O)OC(C)(C)C)cc3cccc(Cl)c13)C2 [Compound 109] |
| ≤ 100 nM | ≤ 100 nM | ≤ 100 nM | ≤ 100 nM | – | C[C@@H]1Cn2cnc(Cl)c2CN1c1nc(OCC2CCCN2C)nc2c1CCN(c1cccc3cccc(Cl)c13)C2 (some centres unmarked) [Compound 86] |
| ≤ 100 nM | ≤ 100 nM | ≤ 100 nM | ≤ 100 nM | – | C[C@@H]1Cn2cnc(F)c2CN1c1nc(OC[C@@H]2CCCCN2C)nc2c1CCN(c1cccc3cccc(F)c13)C2 [Compound 113] |
| ≤ 100 nM | ≤ 100 nM | ≤ 100 nM | 100 to 1000 nM | – | CCN1CCC[C@H]1COc1nc2c(c(N3Cc4cncn4C[C@H]3C)n1)CCN(c1cccc3cccc(Cl)c13)C2 [Compound 63] |
| ≤ 100 nM | ≤ 100 nM | – | – | – | C[C@@H]1Cn2cnc(F)c2CN1c1nc(OC[C@@H]2CCCN2C)nc2c1CCN(c1cc(OC(=O)C(C)(C)C)cc3cccc(Cl)c13)C2 [Compound 96] |
| 100 to 1000 nM | 100 to 1000 nM | 1000 to 10000 nM | 1000 to 10000 nM | – | C[C@@H]1Cn2cnc(F)c2CN1c1nc(OC[C@@H]2CCCN2C)nc2c1CCN(c1cc(NS(C)(=O)=O)cc3cccc(Cl)c13)C2 [Compound 112] |
| ≤ 100 nM | ≤ 100 nM | 100 to 1000 nM | 100 to 1000 nM | – | CC1Cc2[nH]ncc2CN1c1nc(OC[C@@H]2CCCN2C)nc2c1CCN(c1cccc3cccc(Cl)c13)C2 (some centres unmarked) [Compound 118] |
| ≤ 100 nM | ≤ 100 nM | ≤ 100 nM | ≤ 100 nM | – | C[C@@H]1Cn2cnc(F)c2CN1c1nc(OC[C@@H]2CCCN2C)nc2c1CCN(c1cc(F)cc3cccc(Cl)c13)C2 [Compound 117] |
| ≤ 100 nM | ≤ 100 nM | ≤ 100 nM | ≤ 100 nM | – | C[C@@H]1Cn2cnc(F)c2CN1c1nc(OC[C@@H]2CCCN2C)nc2c1CCN(c1cc(O)c(Cl)c3cccc(Cl)c13)C2 [Compound 105] |
| 100 to 1000 nM | 100 to 1000 nM | 100 to 1000 nM | 1000 to 10000 nM | – | COc1cc(N2CCc3c(nc(OC[C@@H]4CCCN4C)nc3N3Cc4cncn4C[C@H]3C)C2)c2c(Cl)cccc2c1 [Compound 85] |
| 100 to 1000 nM | 1000 to 10000 nM | 100 to 1000 nM | 1000 to 10000 nM | – | CN1CCC[C@H]1COc1nc2c(c(N3CCn4c(cnc4Br)C3)n1)CCN(c1cccc3cccc(Cl)c13)C2 [Compound 49] |
| 100 to 1000 nM | 100 to 1000 nM | 100 to 1000 nM | 1000 to 10000 nM | – | C[C@@H]1Cn2cncc2CN1c1nc(O[C@@H]2CCCN(C)C2)nc2c1CCN(c1cccc3cccc(Cl)c13)C2 [Compound 60] |
| ≤ 100 nM | ≤ 100 nM | 100 to 1000 nM | 100 to 1000 nM | – | C#Cc1c(F)ccc2cc(O)cc(N3CCc4c(nc(OC[C@@H]5CCCN5C)nc4N4Cc5c(F)ncn5C[C@H]4C)C3)c12 [Compound 108] |
| 100 to 1000 nM | 100 to 1000 nM | 100 to 1000 nM | 1000 to 10000 nM | – | C[C@@H]1Cn2cncc2CN1c1nc(O[C@H]2CCN(C)C2)nc2c1CCN(c1cccc3cccc(Cl)c13)C2 [Compound 71] |
| ≤ 100 nM | ≤ 100 nM | ≤ 100 nM | ≤ 100 nM | – | C[C@@H]1Cn2cnc(F)c2CN1c1nc(OC[C@@H]2CCCN2C)nc2cc(-c3cc(O)cc4cccc(Cl)c34)ccc12 [Compound 91] |
| ≤ 100 nM | ≤ 100 nM | ≤ 100 nM | 100 to 1000 nM | – | C[C@@H]1Cn2cncc2CN1c1nc(OC[C@H]2CCCN2C)nc2c1CCN(c1cccc3cccc(Cl)c13)C2 [Compound 58] |
| 100 to 1000 nM | 1000 to 10000 nM | 100 to 1000 nM | 1000 to 10000 nM | – | CN1CCC[C@H]1COc1nc2c(c(N3CCn4cnc(C(N)=O)c4C3)n1)CCN(c1cccc3cccc(Cl)c13)C2 [Compound 52] |
| ≤ 100 nM | ≤ 100 nM | ≤ 100 nM | ≤ 100 nM | – | C[C@@H]1Cn2cnc(F)c2CN1c1nc(OC[C@@H]2CCCCN2C)nc2c1CCN(c1cc(F)cc3cccc(Cl)c13)C2 [Compound 115] |
| ≤ 100 nM | ≤ 100 nM | ≤ 100 nM | 100 to 1000 nM | – | C[C@@H]1Cn2cncc2CN1c1nc(OC[C@@H]2CCCN2C)nc2c1CCN(c1cccc3cccnc13)C2 [Compound 83] |
| ≤ 100 nM | ≤ 100 nM | ≤ 100 nM | 100 to 1000 nM | – | C[C@@H]1Cn2cncc2CN1c1nc(O[C@@H]2CCN(C)C2)nc2c1CCN(c1cccc3cccc(Cl)c13)C2 [Compound 57] |
| ≤ 100 nM | ≤ 100 nM | ≤ 100 nM | ≤ 100 nM | IC50 [1, 9]: 24 nM; IC50 ([2]; Table 2, 120 hours incubation, read-out: IC50 SW480 (G12V)): 25 nM; IC50 [3, 10]: 33 nM; IC50 [4, 11]: 36 nM | C[C@@H]1Cn2cncc2CN1c1nc(OC[C@@H]2CCCN2C)nc2c1CCN(c1cccc3cccc(Cl)c13)C2 [Compound 44] |
| ≤ 100 nM | ≤ 100 nM | – | ≤ 100 nM | – | C[C@@H]1Cn2cncc2CN1c1nc(OC[C@@H]2CCCN2C)nc2c1CCN(c1cc(OC(=O)C(C)(C)C)cc3cccc(Cl)c13)C2 [Compound 79] |
| 100 to 1000 nM | – | 100 to 1000 nM | – | – | CN1CCC[C@H]1COc1nc2c(c(N3CCn4cncc4C3)n1)CCN(c1cc(O)cc3ccccc13)C2 [Compound 43] |
| – | – | – | – | IC50 [1, 12]: ≤ 100 nM; IC50 [3, 13]: 100 to 1000 nM; IC50 [4, 14]: 100 to 1000 nM | Cc1ncn2c1CN(c1nc(OC[C@@H]3CCCN3C)nc3c1CCN(c1cccc4cccc(Cl)c14)C3)CC2 [Compound 41] |
| – | – | – | – | IC50 [1, 12]: 100 to 1000 nM; IC50 [3, 13]: 100 to 1000 nM; IC50 [4, 14]: 100 to 1000 nM | CN1CCC[C@H]1COc1nc2c(c(N3CCn4cnc(C5CC5)c4C3)n1)CCN(c1cccc3cccc(Cl)c13)C2 [Compound 40] |
| – | – | – | – | IC50 [1, 9]: 1180 nM; IC50 [3, 10]: 1040 nM; IC50 [4, 11]: 1500 nM | C=Cc1ncc2n1CCN(c1nc(OC[C@@H]3CCCN3C)nc3c1CCN(c1cccc4ccccc14)C3)C2 [Comparative compound 3′, reference compound] |
| – | – | – | – | IC50 [1, 9]: 1480 nM; IC50 [3, 10]: 1230 nM; IC50 [4, 11]: 1610 nM | C=Cc1ncc2n1CCN(c1nc(OC[C@@H]3CCCN3C)nc3c1CCN(c1cccc4cccc(Cl)c14)C3)C2 [Comparative compound 2′, reference compound] |
